These results are taken from US20180362485A1, “N-HYDROXYFORMAMIDE COMPOUNDS AND COMPOSITIONS COMPRISING THEM FOR USE AS BMP l, TLL1 AND/OR TLL2 INHIBITORS” (GlaxoSmithKline Intellectual Property (No. 2) Limited, priority 2015, published 2018).

The target in the experiment is T1, human TLL2 (Homo sapiens, UniProt Q9Y6L7).
T1 construct: amino acids 26-1015 of human TLL2 (NM_012465); made in house
T1 sequence (Q9Y6L7 150-1015): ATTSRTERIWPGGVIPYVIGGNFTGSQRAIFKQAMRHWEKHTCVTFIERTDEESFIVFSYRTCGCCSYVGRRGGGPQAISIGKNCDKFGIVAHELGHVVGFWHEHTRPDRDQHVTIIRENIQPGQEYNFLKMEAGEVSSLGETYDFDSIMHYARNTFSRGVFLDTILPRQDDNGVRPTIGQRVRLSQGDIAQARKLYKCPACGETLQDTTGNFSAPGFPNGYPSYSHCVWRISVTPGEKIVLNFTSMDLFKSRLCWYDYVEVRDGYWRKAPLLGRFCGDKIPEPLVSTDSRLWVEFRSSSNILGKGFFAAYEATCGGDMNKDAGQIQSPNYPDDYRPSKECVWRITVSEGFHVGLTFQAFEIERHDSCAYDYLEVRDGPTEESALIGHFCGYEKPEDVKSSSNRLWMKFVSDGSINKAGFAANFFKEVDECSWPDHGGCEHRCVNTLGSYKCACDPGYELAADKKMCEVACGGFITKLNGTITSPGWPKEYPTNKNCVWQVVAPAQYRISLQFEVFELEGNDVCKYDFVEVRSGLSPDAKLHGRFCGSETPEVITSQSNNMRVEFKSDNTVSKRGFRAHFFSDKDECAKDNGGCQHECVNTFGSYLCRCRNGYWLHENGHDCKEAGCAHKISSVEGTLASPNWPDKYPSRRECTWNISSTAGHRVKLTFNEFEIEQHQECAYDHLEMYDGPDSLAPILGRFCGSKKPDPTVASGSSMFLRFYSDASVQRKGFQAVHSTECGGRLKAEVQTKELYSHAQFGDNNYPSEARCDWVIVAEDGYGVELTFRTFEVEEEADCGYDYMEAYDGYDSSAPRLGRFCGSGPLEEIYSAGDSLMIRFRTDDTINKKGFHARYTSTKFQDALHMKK
The experiment in a line: Enzyme inhibition assay for human TLL2. The note with it: 18 nM TLL2, 5 μM promyostatin peptide substrate; read-out: pIC50, TLL2 enzyme inhibition assay (converted). The class given is biochemical. The source says:
Buffer components are purchased from Sigma-Aldrich (St. Louis, Mo.) or an equivalent supplier. The promyostatin peptide substrate is custom synthesized by American Peptide Company (Sunnyvale, Calif.) using the myostatin protein sequence (Uniprot accession number 014793) surrounding the cleavage site reviewed in Hopkins, D. R., et al., 2007 Matrix Biology, 26, 508-523. The procollagen peptide substrate used in the high enzyme BMP1 cleavage assay is custom synthesized by 21st Century Biochemicals (Marlboro, Mass.) using the procollagen Iα protein sequence (Uniprot accession number P02452) surrounding the cleavage site reviewed in Hopkins, D. R., et al., 2007 Matrix Biology, 26, 508-523.
The DNA sequence encoding amino acids 26-1015 of human TLL2 (NM_012465) is PCR amplified from DNA template with the human RAGE signal sequence at the N-terminus and Avi-6×His epitope tags at the C-terminus ([…]). […]
Inhibition of human TLL1 and TLL2 recombinant enzymes is measured in 10 ul endpoint assays in 384-well format using the same promyostatin peptide substrate employed in the above Enzyme Inhibition Assay for human BMP1. […] TLL1 and TLL2 reactions are quenched with 5 μl of 0.5 M EDTA and plates are read on a ViewLux (Perkin Elmer) multilabel plate reader using a 480 nm excitation filter and 540 nm emission filter. […]

Consider `CCCCC[C@@H](C(=O)NCNC(=O)c1ccc(-c2ccc(C(=O)O)cc2)o1)[C@@H](CC)N(O)C=O` [WO2015/104684 Example 71, 4-(5-((((R)-2-((R)-1-(N-hydroxyformamido)propyl)heptanamido)methyl)carbamoyl)furan-2-yl)benzoic acid], for which the IC50 is less than 0.794 µM.
